{"source": "patent US20040077636A1", "about": "“Restricting reinstatement of drug use” (priority 2000, published 2004)", "key": {"heroin-addicted rats": {"tested_on": "heroin-addicted rats", "details": "Euro. J. Neurosci. 12, 292-302, 2000; cited from earlier work"}, "[1]": {"details": "pre-treatment; literature reports; cited from earlier work"}, "[2]": {"details": "humans; cited from earlier work"}, "Male Wistar rats [3]": {"tested_on": "Male Wistar rats", "assay": "Extinction of alcohol self-administration behaviour", "assay_type": "in vivo", "details": "for responding on the active lever, second day of extinction: among the three groups", "experimental": "(§1) Animals: Male Wistar rats (Charles River, Montreal; weighing about 150-200 g. at the start of the experiments) were individually housed. Food and water were freely available in the home cages for 23 h/day. Food was not available during the 30 to 60 min daily session (see below). The temperature was maintained at 21±1° C. and the lights were on from 7 a.m. to 7 p.m. Rats were initially trained to consume alcohol in a limited access procedure (Linseman, 1987). The rats were given access to an alcohol solution and water in modified Richter tubes for 30 min/day in drinking cages. Alcohol solutions were provided in escalating concentrations: 3% w/v for the first 5 days 6% for the next 8 days and 12% for the last 10-12 days. Rats that consumed less than 0.4 g/kg per session during the last 10-12 days were excluded. All procedures were done in accordance with the guidelines of the Canadian Council on Animals Care and the ‘principle of laboratories animal care’ (NIH publication No. 85-23, revised 1985), and were approved by the local Animal Care Committee.\nApparatus: The alcohol self-administration system was built locally. Each operant chamber was equipped with two levers, symmetrically centered on the side panel. Responding on one lever (the active lever) activated the infusion pump (Razel Sci. Stamford, Conn., USA). […] During the infusion, a stimulus light above the active lever was turned on for 6 s. […] The grid floor of the operant cambers was connected to electric shock generators (Med Associates, Georgia, Vt., USA).\nTraining and extinction of alcohol self-administration: Operant self-administration of alcohol was initiated on a fixed ration-1 schedule of reinforcement (FR-1, each lever press is reinforced) for 60 min per day for 5-7 days per week. Responding on the FR-1 schedule was maintained for 10-14 sessions. The requirement for alcohol delivery was then increased to FR-2 for five sessions. Subsequently, the schedule requirement was increased to an FR-3 schedule for 8-12 days until the rats obtained three days of stable drug taking (variability of less than 20% of the mean). […]"}, "Male Wistar rats [4]": {"tested_on": "Male Wistar rats", "assay": "Footshock stress-induced reinstatement of alcohol seeking", "assay_type": "in vivo", "details": "for reinstatement of alcohol seeking (responses on the active lever after footshock): vs saline, p<0.05", "experimental": "Animals: Male Wistar rats (Charles River, Montreal; weighing about 150-200 g. at the start of the experiments) were individually housed. Food and water were freely available in the home cages for 23 h/day. Food was not available during the 30 to 60 min daily session (see below). The temperature was maintained at 21±1° C. and the lights were on from 7 a.m. to 7 p.m. Rats were initially trained to consume alcohol in a limited access procedure ([…], 1987). The rats were given access to an alcohol solution and water in modified Richter tubes for 30 min/day in drinking cages. Alcohol solutions were provided in escalating concentrations: 3% w/v for the first 5 days 6% for the next 8 days and 12% for the last 10-12 days. Rats that consumed less than 0.4 g/kg per session during the last 10-12 days were excluded. All procedures were done in accordance with the guidelines of the Canadian Council on Animals Care and the 'principle of laboratories animal care' (NIH publication No. 85-23, revised 1985), and were approved by the local Animal Care Committee. Apparatus: The alcohol self-administration system was built locally. Each operant chamber was equipped with two levers, symmetrically centered on the side panel. Responding on one lever (the active lever) activated the infusion pump (Razel Sci. Stamford, Conn., USA). […] During the infusion, a stimulus light above the active lever was turned on for 6 s. […] The grid floor of the operant cambers was connected to electric shock generators (Med Associates, Georgia, Vt., USA). Training and extinction of alcohol self-administration: Operant self-administration of alcohol was initiated on a fixed ration-1 schedule of reinforcement (FR-1, each lever press is reinforced) for 60 min per day for 5-7 days per week. Responding on the FR-1 schedule was maintained for 10-14 sessions. The requirement for alcohol delivery was then increased to FR-2 for five sessions. Subsequently, the schedule requirement was increased to an FR-3 schedule for 8-12 days until the rats obtained three days of stable drug taking (variability of less than 20% of the mean). During extinction sessions, presses on the previously active lever had no programmable consequences. […] Test for Reinstatement: Tests were conducted under extinction conditions. Intermittent footshock (0.8 mA; 0.5 s ON; a mean OFF period of 40 s; a range of 10-70 s) was administered for a period of 10 min just prior to the test sessions. Footshock was delivered through a scrambler to the stainless steel grid floor of the operant chambers. […] When the animals achieved extinction criterion, the effect of pre-treatment with lofexidine on footshock stress-induced reinstatement of alcohol seeking was determined as described above. […]"}, "[5]": {"details": "in vivo; cited from earlier work"}, "[6]": {"assay": "Footshock stress-induced reinstatement of cocaine seeking", "assay_type": "in vivo", "details": "0.150 mg/kg or 0.2 mg/kg"}, "[7]": {"tested_on": "imidazoline-type 1 receptors", "details": "cited from earlier work"}, "NE release": {"tested_on": "NE release", "details": "doses employed in the present study; cited from earlier work"}, "Male Wistar rats [8]": {"tested_on": "Male Wistar rats", "assay": "Operant alcohol self-administration", "assay_type": "in vivo", "details": "average of two consecutive sessions, vs saline", "experimental": "as §1, with “Committee. […]” for “Committee.”\nAnalysis of variance with or without repeated measures were employed to analyse the data. […] In the first experiment, the average amounts of alcohol self-administered over a period of two days were used to quantify the effects of lofexidine treatment on alcohol self-administration. […]"}}, "note": "“Also recorded” adds a separate entry of the source.", "data": [{"smiles": "Clc1cccc(Cl)c1N=C1NCCN1", "note": "[clonidine]", "values": [{"measurement": "foot-shock-induced reinstatement of heroin-seeking", "setting": "heroin-addicted rats", "result": "effective"}, {"measurement": "alcohol consumption", "setting": "[1]", "result": "reduction in alcohol consumption"}]}, {"smiles": "N=C(N)NC(=O)Cc1c(Cl)cccc1Cl", "note": "[guanfacine]", "values": [{"measurement": "alcohol consumption", "setting": "[1]", "result": "reduction in alcohol consumption"}]}, {"smiles": "CC(Oc1c(Cl)cccc1Cl)C1=NCCN1", "note": "(stereo not drawn) [lofexidine, Lofexidine]", "values": [{"measurement": "adverse side effects compared with clonidine, in particular hypotensive effects", "setting": "[2]", "result": "fewer adverse side effects"}, {"measurement": "responding on the active lever, second day of extinction", "setting": "Male Wistar rats [3]; 0.05 mg/kg IP daily", "result": "no significant differences"}, {"measurement": "responding on the active lever, first day of extinction", "setting": "Male Wistar rats [3]; 0.1 mg/kg IP daily 1 h before session, vs saline and lower dose group", "result": "significantly lower; also recorded: significant decrease"}, {"measurement": "responding on the active lever, second day of extinction", "setting": "Male Wistar rats [3]; 0.1 mg/kg IP daily", "result": "no significant differences"}, {"measurement": "reinstatement of alcohol seeking (responses on the active lever after footshock)", "setting": "Male Wistar rats [4]; 0.05 mg/kg IP 1 h before 10 min intermittent footshock", "result": "significantly suppressed"}, {"measurement": "reinstatement of alcohol seeking (responses on the active lever after footshock)", "setting": "Male Wistar rats [4]; 0.1 mg/kg IP 1 h before 10 min intermittent footshock", "result": "significantly suppressed"}, {"measurement": "reinstatement of alcohol seeking (responses on the active lever after footshock)", "setting": "Male Wistar rats [4]; 0.2 mg/kg IP 1 h before 10 min intermittent footshock", "result": "significantly suppressed"}, {"measurement": "reinstatement of alcohol seeking", "setting": "Male Wistar rats [4]; doses ranging from 0.05 to 0.2 mg/kg, intermittent footshock stress", "result": "completely suppressed"}, {"measurement": "hypotensive effect", "setting": "[5]", "result": "minimal hypotensive effect"}, {"measurement": "footshock stress-induced reinstatement of cocaine seeking", "setting": "[6]", "result": "attenuation; also recorded: suppressed"}, {"measurement": "affinity for imidazoline-type 1 (I2) receptors", "setting": "[7]", "result": "high affinity"}, {"measurement": "stress induced NE release in the pre-frontal cortex and amygdala", "setting": "NE release", "result": "block"}, {"measurement": "alcohol self-administration (amount of alcohol self-administered during 1-hour session)", "setting": "Male Wistar rats [8]; 0.05 mg/kg IP 1 h before session", "result": "no significant differences; also recorded: did not reach statistical significance"}, {"measurement": "alcohol self-administration (amount of alcohol self-administered during 1-hour session)", "setting": "Male Wistar rats [8]; 0.1 mg/kg IP 1 h before session, p<0.05", "result": "significantly lower; also recorded: significantly suppresses"}]}, {"smiles": "Cc1csc(Cl)c1NC1=NCCN1", "note": "[tiamedine]", "values": [{"measurement": "alcohol consumption", "setting": "[1]", "result": "reduction in alcohol consumption"}]}]}
